These results are taken from publication doi:10.1101/2025.08.13.670122v1 (bioRxiv, 2025).

One may read the EC50 as the concentration at which the effect is half-maximal.

One data set is described as follows: Plasma stability. The class given is in vitro ADME. Particulars: male Sprague-Dawley rat plasma, 6 μL of 1 mM compound (10% DMSO) in 27 μL plasma, 37°C, 0-24 h, UPLC-MS, one-phase decay, mean ± SEM of at least three experiments, read-out: Plasmatic half-life t1/2 (±SEM). The protocol:
The degradation was quenched by adding 140 μL of 1% formic acid in an acetonitrile-ethanol (1:1) solution containing 0.25 mM of N,N-dimethylbenzamide (used as an internal standard). This mixture was initially transferred to an Impact Protein Precipitation filter plate (Phenomenex, California), the filtrates from which were subsequently collected in a second 96-well UPLC plate. Both plates were centrifuged at 500 g for 10 min while maintaining a temperature of 4°C. The filtrates were then diluted with 30 μL of distilled water and processed for analysis using an Acquity UPLC-MS system class H (using an Acquity UPLC protein BEH C18 column that measured 2.1 mm × 50 mm and had 1.7 μm particles with pores 130 Å in width). The peptide half-life, derived from the degradation curve, was calculated using the exponential one-phase decay function in GraphPad Prism 9. Degradation was estimated by comparing the mass spectrum at each point with those at the zero-minute mark. The data were presented as a mean ± SEM of at least three unique experiments, each performed in singlicate.

For data set [1], the target named is T1, AT1R (Homo sapiens, UniProt P30556).
T1 sequence (P30556 1-359): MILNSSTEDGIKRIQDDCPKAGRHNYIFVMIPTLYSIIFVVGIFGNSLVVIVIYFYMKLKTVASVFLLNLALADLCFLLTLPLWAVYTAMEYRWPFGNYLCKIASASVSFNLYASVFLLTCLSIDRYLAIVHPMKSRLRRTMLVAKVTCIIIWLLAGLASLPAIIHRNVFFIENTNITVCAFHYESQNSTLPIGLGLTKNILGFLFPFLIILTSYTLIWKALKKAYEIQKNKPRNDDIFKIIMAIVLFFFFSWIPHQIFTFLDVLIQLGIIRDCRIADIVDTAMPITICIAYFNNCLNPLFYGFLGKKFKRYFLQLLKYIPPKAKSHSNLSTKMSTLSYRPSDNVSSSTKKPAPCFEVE
Put plainly: β-arrestin2 recruitment BRET (β-arrestin2-RLucII/rGFP-CAAX) in HEK293 cells expressing AT1R. The class given is cell-based. The arrangement: expressed in transfected cells; host or cells: HEK293 cells, transient PEI transfection. Conditions: for Emax βarr2 (% AngII): HEK293/AT1R, β-arrestin2 BRET, response of the ligand at 10 μM, normalised to AngII; for EC50: HEK293 cells transiently expressing AT1R, β-arrestin2-RLucII/rGFP-CAAX BRET, read 10 min after ligand, mean ± SEM of at least three to five independent experiments, SEM, read-out: EC50 βarr2. An excerpt:
(§1) We utilized a clonal cell line HEK293, referred to hereafter as HEK293 cells, which has been previously described.[7],[8] As a gracious gift from A. Inoue (Tohoku University, Sendai, Miyagi, Japan), CRISPR Gαq/11 and Gα12/13 knockout cell lines (ΔGq/11 and ΔG12/13, respectively), were derived as previously explained.[48] In brief, a CRISPR-Cas9 system was used to target either GNAQ and GNA11 or GNA12 and GNA13 genes in HEK293T cells simultaneously to generate the Gαq/11 and Gα12/13 knockout cell lines. For the production of adenovirus, we utilized HEK293A cells. All cells were grown in DMEM supplemented with 10% FBS and Penicillin-Streptomycin-L-Glutamine (10000 IU penicillin, 10000 µg/mL Streptomycin, 200 mM L-Glutamine) at 37°C in T175 flasks under a 5% CO2 humidified chamber. Periodic testing was carried out for mycoplasma contamination (ABM™, Mycoplasma PCR Detection kit). For all biosensors used, cells underwent transfection with the PEI reagent, employing a PEI:DNA ratio of 3:1. For the Gαq biosensor, HEK293 cells were transfected with the plasmids coding for Gαq-RLucII (120 ng), Gβ1 (3000 ng), Gγ1-GFP10 (3000 ng), human AT1 (3000 ng) and Salmon sperm DNA (SSD) (880 ng). For the β-arrestin2 recruitment assay, HEK293 cells were transfected with the plasmids coding for 120 ng β-arrestin-2-RLucII, 3000 ng AT1, 3000 ng rGFP-CAAX, and 3880 ng SSD. For the measurement of PKC, HEK293 cells were transfected with 3000 ng AT1, 600 ng PKC-c1b, and 6400 ng SSD. […] 100 µL of the cell/DNA mixture was added to white 96-well plates and incubated at 37°C at 5% CO2 for 48 h. For the Rho assay, ΔG12/13 cells were seeded at a density of 9,000 cells per well in poly-ornithine-coated white 96-well plates and transfected the following day. In brief, 1 μg of total DNA in 100 μL of PBS was mixed with 100 μL of PBS containing 3 μL of 1 mg/mL PEI. For Rho signaling, 150 ng of AT1R DNA with 25 ng of PKN-RBD-RlucII [8], and 100 ng of rGFP-CAAX were used. Empty pcDNA was used to reach 1 µg of the total DNA amount in 100 μL of PBS. The DNA was then mixed with 100 μL of PBS containing 3 μL of 1 mg/mL PEI. After a 20-min incubation, the DNA/PEI complexes were dispensed into cells in 96-well plates (15 µL/well), and the experiment was carried out 48 h post-transfection.
(§2) On the day of the experiment, each well was washed with 80 µL of Tyrode’s buffer (140 mM NaCl, 2.7 mM KCl, 1 mM CaCl2, 12 mM NaHCO3, 5.6 mM D-glucose, 0.5 mM MgCl2, 0.37 mM NaH2PO4, 25 mM Hepes (pH 7.4)). This was followed by incubation for 1 h in Tyrode’s buffer at room temperature. For the Gαq, β-arrestin-2, and PKC biosensors used in HEK293 cells, coelenterazine 400A (at a final concentration of 5 μM) was added 10 min before stimulation. Cells were then stimulated with increasing doses of the indicated ligand, and BRET signals were measured using a Tristar2 (Berthold) microplate reader 10 min later. For the PKC and Rho biosensors in VSMCs, and the Rho biosensor in ΔG12/13 cells, cells were similarly stimulated with ligands for 1 min, 1 min 30 s, and 3 min, respectively, before BRET measurement. […] BRET signals were then measured using a Synergy2 (BioTek) microplate reader. The applied filter set was 410/80 nm and 515/30 nm, designed to detect the light emissions of RlucII (Renilla luciferase) (donor) and rGFP (acceptor), respectively.
A general note: Recruitment of arrestin is a read-out of receptor activation apart from second messengers.

In data set [2] the target is T1, AT1R. Put plainly: Gαq activation BRET (GABY sensor) in HEK293 cells expressing AT1R. The format is cell-based. Set-up: expressed in transfected cells; host or cells: HEK293 cells, transient PEI transfection. Particulars: for Emax Gαq (% AngII): HEK293/AT1R, GABY BRET sensor, response of the ligand at 10 μM, normalised to AngII; for EC50: HEK293 cells transiently expressing human AT1R, Gαq-RlucII/Gβ1/Gγ1-GFP10 (GABY) BRET sensor, BRET read 10 min after ligand, mean ± SEM of at least three to five independent experiments.
Source text: as §1, §2
Background: In BRET a luciferase serves as donor, and the signal depends on an acceptor being close.

Peptide text beside a SMILES is read from it.

As to `CC[C@H](C)[C@H](NC(=O)[C@H](Cc1ccc(O)cc1)NC(=O)[C@@H](NC(=O)[C@H](CCCNC(=N)N)NC(=O)[C@@H](N)CC(=O)O)C(C)C)C(=O)N[C@@H](Cc1c[nH]cn1)C(=O)N1CCC[C@H]1C(=O)N[C@@H](Cc1ccccc1Cl)C(=O)O` [29a], the half-life at 182 µM in “Plasma stability” was determined as 32 ± 3 min.

In the case of `CC[C@H](C)[C@H](NC(=O)[C@H](Cc1ccc(O)cc1)NC(=O)[C@@H](NC(=O)[C@H](CCCNC(=N)N)NC(=O)[C@@H](N)CC(=O)O)C(C)C)C(=O)N[C@@H](Cc1c[nH]cn1)C(=O)N1CCC[C@H]1C(=O)N[C@H](C(=O)O)C(C)(C)C` [compound 3], the “Emax βarr2 (% AngII)” value at AT1R [1] was found to be 81 % AngII. Also, the EC50 was determined as 2.3 ± 0.4 nM at AT1R [1] and 0.36 ± 0.84 nM on AT1R [2] (SEM). Moreover, at AT1R [2], the “Emax Gαq (% AngII)” value was 19 % AngII.

Consider `CC[C@H](C)[C@H](NC(=O)[C@H](Cc1ccc(O)cc1)NC(=O)[C@@H](NC(=O)[C@H](CCCNC(=N)N)NC(=O)[C@@H](N)CC(=O)O)C(C)C)C(=O)N[C@@H](Cc1c[nH]cn1)C(=O)N1CCC[C@H]1C(=O)N[C@@H](Cc1cccnc1)C(=O)O` [compound 18], for which, on AT1R [1], the “Emax βarr2 (% AngII)” value is 90 % AngII and the EC50 came out at 3.7 ± 0.7 nM. Moreover, at AT1R [2], the “Emax Gαq (% AngII)” value is 31 % AngII. Moreover, the EC50 at AT1R [2] (SEM) was found to be 22 ± 11 nM.

Take `CC[C@H](C)[C@H](NC(=O)[C@H](Cc1ccc(O)cc1)NC(=O)[C@@H](NC(=O)[C@H](CCCNC(=N)N)NC(=O)[C@@H](N)CC(=O)O)C(C)C)C(=O)N[C@@H](Cc1c[nH]cn1)C(=O)N1CCC[C@H]1C(=O)N[C@@H](Cc1ccc2ccccc2c1)C(=O)O` [compound 9]: at AT1R [1], the “Emax βarr2 (% AngII)” value turned out to be 97 % AngII and the EC50 came out at 1 ± 0.3 nM. In addition, the “Emax Gαq (% AngII)” value on AT1R [2] is 69 % AngII. Moreover, the EC50 on AT1R [2] (SEM) was 3.9 ± 1.9 nM.

For `CC[C@H](C)[C@H](NC(=O)[C@H](Cc1ccc(O)cc1)NC(=O)[C@@H](NC(=O)[C@H](CCCNC(=N)N)NC(=O)[C@@H](N)CC(=O)O)C(C)C)C(=O)N[C@@H](Cc1c[nH]cn1)C(=O)N1CCC[C@H]1C(=O)N[C@@H](CCC(N)=O)C(=O)O` [compound 7] (H-DRVYIHPQ-OH; N-terminus assumed), on AT1R [1], the “Emax βarr2 (% AngII)” value turned out to be 56 % AngII and the EC50 was determined as 158 ± 20 nM. For the same compound, at AT1R [2], the EC50 is over 10000 nM.

For `CC[C@H](C)[C@H](NC(=O)[C@H](Cc1ccc(O)cc1)NC(=O)[C@@H](NC(=O)[C@H](CCCNC(=N)N)NC(=O)[C@@H](N)CC(=O)O)C(C)C)C(=O)N[C@@H](Cc1c[nH]cn1)C(=O)N1CCC[C@H]1C(=O)N[C@H](C(=O)O)C(c1ccccc1)c1ccccc1` [compound 15], on AT1R [1], the “Emax βarr2 (% AngII)” value is 109 % AngII and the 50% effective concentration (EC50) was 6.7 ± 0.8 nM. Moreover, the “Emax Gαq (% AngII)” value at AT1R [2] amounted to 99 % AngII. Besides, the half-maximal effective concentration (EC50) on AT1R [2] (SEM) came to 7.9 ± 1.7 nM.

For the compound `CCCC[C@H](NC(=O)[C@@H]1CCCN1C(=O)[C@H](Cc1c[nH]cn1)NC(=O)[C@@H](NC(=O)[C@H](Cc1ccc(O)cc1)NC(=O)[C@@H](NC(=O)[C@H](CCCNC(=N)N)NC(=O)[C@@H](N)CC(=O)O)C(C)C)[C@@H](C)CC)C(=O)O` [compound 2], the “Emax βarr2 (% AngII)” value on AT1R [1] is given as 92 % AngII. Further, the EC50 on AT1R [1] was 0.86 ± 0.16 nM; at AT1R [2] (SEM), 3 ± 3.6 nM. For the same compound, the “Emax Gαq (% AngII)” value on AT1R [2] is reported as 36 % AngII.

As to `CC[C@H](C)[C@H](NC(=O)[C@H](Cc1ccc(O)cc1)NC(=O)[C@@H](NC(=O)[C@H](CCCNC(=N)N)NC(=O)[C@@H](N)CC(=O)O)C(C)C)C(=O)N[C@@H](Cc1c[nH]cn1)C(=O)N1CCC[C@H]1C(=O)N[C@@H](COCc1ccccc1)C(=O)O` [compound 16], the “Emax βarr2 (% AngII)” value on AT1R [1] worked out at 87 % AngII. Further, the EC50 was 3 ± 0.5 nM at AT1R [1], over 10000 nM at AT1R [2] and 2.3 ± 4 nM at AT1R [2] (SEM). Besides, the “Emax Gαq (% AngII)” value at AT1R [2] is listed as 26 % AngII.

For `CC[C@H](C)[C@H](NC(=O)[C@H](Cc1ccc(O)cc1)NC(=O)[C@@H](NC(=O)[C@H](CCCNC(=N)N)NC(=O)[C@@H](N)CC(=O)O)C(C)C)C(=O)N[C@@H](Cc1c[nH]cn1)C(=O)N1CCC[C@H]1C(=O)N[C@@H](Cc1c[nH]c2ccccc12)C(=O)O` [compound 21] (H-DRVYIHPW-OH; N-terminus assumed), the “Emax βarr2 (% AngII)” value on AT1R [1] worked out at 107 % AngII. The “Emax Gαq (% AngII)” value on AT1R [2] stood at 91 % AngII.
